Laboratory results from publication PMC10840383, “Clinical features, functional consequences, and rescue pharmacology of missense GRID1 and GRID2 human variants” (Human Molecular Genetics, 2023).
“Also recorded” adds a separate entry of the source. Read-outs that look alike come from different tables or passages of the source.

Experiments:
[1] = biological target: T1, GluD1-A650T (Homo sapiens, UniProt Q9ULK0, A650T); assay: TEVC of constitutive current, Xenopus oocytes expressing GluD1-A650T; assay type: cell-based; settings: for EC50: modulation of constitutive current
T1 construct: expressed in transfected cells; host or cells: Xenopus laevis oocytes injected with cRNA
T1 sequence (Q9ULK0 21-1009 A650T): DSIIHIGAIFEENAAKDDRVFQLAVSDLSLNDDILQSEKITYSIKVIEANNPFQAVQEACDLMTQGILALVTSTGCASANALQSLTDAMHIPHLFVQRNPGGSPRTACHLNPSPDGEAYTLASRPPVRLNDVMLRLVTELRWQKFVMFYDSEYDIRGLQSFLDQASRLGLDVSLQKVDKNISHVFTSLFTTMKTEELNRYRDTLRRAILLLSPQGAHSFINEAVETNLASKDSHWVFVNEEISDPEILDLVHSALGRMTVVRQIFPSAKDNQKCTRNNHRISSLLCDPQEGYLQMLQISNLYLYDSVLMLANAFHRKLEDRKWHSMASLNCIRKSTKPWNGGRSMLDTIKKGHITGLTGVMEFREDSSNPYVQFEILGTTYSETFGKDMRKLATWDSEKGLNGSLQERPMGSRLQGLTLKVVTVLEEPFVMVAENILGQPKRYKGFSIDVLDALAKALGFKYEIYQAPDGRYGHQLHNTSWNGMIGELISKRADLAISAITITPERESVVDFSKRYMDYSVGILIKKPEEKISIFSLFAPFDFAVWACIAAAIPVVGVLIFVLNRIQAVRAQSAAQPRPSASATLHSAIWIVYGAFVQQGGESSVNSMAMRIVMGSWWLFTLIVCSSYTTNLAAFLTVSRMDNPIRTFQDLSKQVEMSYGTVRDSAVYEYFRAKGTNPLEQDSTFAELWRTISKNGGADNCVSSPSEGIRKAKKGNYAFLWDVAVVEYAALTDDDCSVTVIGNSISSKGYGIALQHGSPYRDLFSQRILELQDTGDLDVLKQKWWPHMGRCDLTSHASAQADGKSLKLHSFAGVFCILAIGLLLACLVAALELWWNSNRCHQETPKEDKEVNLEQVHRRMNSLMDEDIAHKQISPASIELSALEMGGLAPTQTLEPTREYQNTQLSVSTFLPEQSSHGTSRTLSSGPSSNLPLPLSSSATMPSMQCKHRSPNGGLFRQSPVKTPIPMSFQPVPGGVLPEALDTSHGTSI

[2] = biological target: T2, GluD2-L656V (Rattus norvegicus, UniProt Q63226, L656V); assay: TEVC of constitutive current, Xenopus oocytes expressing GluD2-L656V; assay type: cell-based
T2 construct: expressed in transfected cells; host or cells: Xenopus laevis oocytes injected with cRNA
T2 sequence (Q63226 24-1007 L656V): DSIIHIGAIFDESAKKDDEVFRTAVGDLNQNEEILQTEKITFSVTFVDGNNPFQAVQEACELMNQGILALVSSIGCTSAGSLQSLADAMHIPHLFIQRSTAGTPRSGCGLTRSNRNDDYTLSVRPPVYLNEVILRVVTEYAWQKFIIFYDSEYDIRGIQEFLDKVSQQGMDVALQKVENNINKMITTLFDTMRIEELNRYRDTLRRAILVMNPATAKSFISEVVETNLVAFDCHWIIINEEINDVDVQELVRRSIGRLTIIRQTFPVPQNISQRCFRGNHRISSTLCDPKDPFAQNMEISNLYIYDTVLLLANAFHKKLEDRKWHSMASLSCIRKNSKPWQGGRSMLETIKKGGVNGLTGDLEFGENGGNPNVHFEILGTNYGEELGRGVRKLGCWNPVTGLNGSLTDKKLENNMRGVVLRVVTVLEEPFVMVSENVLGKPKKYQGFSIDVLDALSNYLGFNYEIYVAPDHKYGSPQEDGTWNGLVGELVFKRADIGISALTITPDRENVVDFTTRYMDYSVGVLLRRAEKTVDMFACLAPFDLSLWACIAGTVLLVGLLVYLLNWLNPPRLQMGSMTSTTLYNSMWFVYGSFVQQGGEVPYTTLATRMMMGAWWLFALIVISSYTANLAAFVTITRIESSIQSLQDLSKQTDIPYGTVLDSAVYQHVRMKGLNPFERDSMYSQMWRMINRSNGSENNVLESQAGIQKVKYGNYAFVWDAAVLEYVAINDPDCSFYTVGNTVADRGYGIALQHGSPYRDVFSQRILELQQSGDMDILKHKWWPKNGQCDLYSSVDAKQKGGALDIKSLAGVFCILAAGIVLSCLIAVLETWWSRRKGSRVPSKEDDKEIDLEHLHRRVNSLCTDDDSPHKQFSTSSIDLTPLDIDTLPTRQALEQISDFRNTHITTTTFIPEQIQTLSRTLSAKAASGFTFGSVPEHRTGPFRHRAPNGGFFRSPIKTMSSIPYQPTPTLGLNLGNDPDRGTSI

[3] = normalized to NMDG+ − Na+ difference current
[4] = 10 mM D-serine, positive = increase, negative = decrease of activity
[5] = percent of constitutive leak current (NMDG+/Na+ difference current)
[6] = 100 μM pentamidine, positive = increase, negative = decrease of activity

## [Ca+2] [Ca^2+]
[1]
  Effect on constitutive current, in words: modestly inhibited
[1]; inhibited by Ca2+ (not potentiated), read-out: Ca2+ EC50 [95% CI]
  EC50: 290 µM
[1]; [3]
  Ca2+ % Max (NMDG+ − Na+) Mean ± SEM: 65 ± 3 (10) %
[2]; [3]
  Ca2+ % Max (NMDG+ − Na+) Mean ± SEM: 260 ± 9.9 (11) %
[2]; potentiation of constitutive current, read-out: Ca2+ EC50 [95% CI]
  EC50: 170 µM
[2]; ratio
  Ca2+ EC50 A654T/EC50 variant: 0.88
[2]; read-out: Ca2+ potentiation EC50
  EC50: 100 to 400 µM

## N[C@H](CO)C(=O)O [D-serine]
[1]
  Effect on constitutive current, in words: modestly potentiated; also recorded: slightly potentiated
[1]; [4]
  D-Serine effect (Baseline −10 mM D-Serine): 810 ± 130 (12) nA
[1]; [5]
  D-serine % Max (NMDG+ − Na+) Mean ± SEM: 120 ± 1.8 (11) %
[1]; read-out: D-serine EC50 [95% CI], potentiated by D-serine (not inhibited)
  EC50: 130 µM
[2]; 10 mM D-serine
  Reduction of maximum possible activity (Na+ −NMDG+ difference current) by D-serine: ~ 50%
[2]; [4]
  D-Serine effect (Baseline −10 mM D-Serine): −460 ± 53 (12) nA
[2]; [5]
  D-serine % Max (NMDG+ − Na+) Mean ± SEM: 62 ± 3.2 (14) %

## CC12CC3CC(C)(C1)CC(N)(C3)C2 [Memantine, memantine]
[1]; inhibition of constitutive current, read-out: Memantine IC50
  IC50: > 300 µM

## N=C(N)c1ccc(OCCCCCOc2ccc(C(=N)N)cc2)cc1 [Pentamidine, pentamidine]
[1]; [6]
  Pentamidine effect (Baseline −100 μM Pentamidine): −1090 ± 200 (12) nA
[1]; read-out: Pentamidine IC50
  IC50: 20 µM
[2]; [6]
  Pentamidine effect (Baseline −100 μM Pentamidine): −640 ± 190 (12) nA
[2]; read-out: Pentamidine IC50
  IC50: 10 µM
